This is an account of results in patent US4201774A, “Novel aminoglycoside derivatives” (Shionogi & Co., Ltd., priority 1977, dated 1980).

In assay [1] the test system is Staphylococus epidermidis TB-302. As to the kind of experiment: MIC, Staphylococus epidermidis TB-302. It is filed as cell-based. The conditions noted are these: read-out: minimum inhibitory concentration (MIC).
For the next assay, the system named is Seratia marcescens MA-81. Put plainly: MIC, Seratia marcescens MA-81*. The conditions noted are these: Seratia marcescens MA-81, tobramycin resistant strain; read-out: minimum inhibitory concentration (MIC). It is filed as cell-based.
For a further assay, the system named is Proteus inconstans In-43. As to the kind of experiment: MIC, Proteus inconstans In-43*. It is filed as cell-based. The conditions noted are these: Providencia alcalifaciens, IN43; Proteus inconstans In-43, tobramycin resistant strain; read-out: minimum inhibitory concentration (MIC).
For the next assay, the system named is Escherichia coli EC-147. Put plainly: MIC, Escherichia coli EC-147*. The conditions noted are these: EC147, read-out: minimum inhibitory concentration (MIC).
A further assay deals with Escherichia coli EC-148. As to the kind of experiment: MIC, Escherichia coli EC-148*. The conditions noted are these: EC148, read-out: minimum inhibitory concentration (MIC).
Assay [2] has as its system Staphylococcus aureus S-25. Put plainly: MIC, Staphylococcus aureus S-25*. The conditions noted are these: S25, read-out: minimum inhibitory concentration (MIC).
The subject of assay [3] is Citrobactor freundii Ct-52. As to the kind of experiment: MIC, Citrobactor freundii Ct-52*. The conditions noted are these: read-out: minimum inhibitory concentration (MIC).
Assay [4] has as its system Enterobacter cloacae Cl-126. As to the kind of experiment: MIC, Enterobacter cloacae Cl-126*. The conditions noted are these: CL126, read-out: minimum inhibitory concentration (MIC).
Assay [5] deals with Pseudomonas aeruginosa PP-6. As to the kind of experiment: MIC, Pseudomonas aeruginosa PP-6*. The conditions noted are these: PP6, read-out: minimum inhibitory concentration (MIC).
Assay [6] deals with Klebsiella pneumoniae Kl-187. Put plainly: MIC, Klebsiella pneumoniae Kl-187*. The conditions noted are these: KL187, read-out: minimum inhibitory concentration (MIC).
Assay [7] deals with Escherichia coli W-677/JR 214. Put plainly: MIC, Escherichia coli W-677/JR 214*. The conditions noted are these: W677/JR214, read-out: minimum inhibitory concentration (MIC).
Assay [8] deals with Escherichia coli W-677/JR 225. Put plainly: MIC, Escherichia coli W-677/JR 225*. The conditions noted are these: W677/JR225, read-out: minimum inhibitory concentration (MIC).
Assay [9] relates to Escherichia coli W-677/JR-762. Put plainly: MIC, Escherichia coli W-677/JR-762*. The conditions noted are these: W677/JR762, read-out: minimum inhibitory concentration (MIC).

≈ marks a conversion by molar mass, not a printed value. Bounds are passed on as bounds.

For the molecule `NC[C@H]1O[C@H](O[C@H]2[C@H](O)[C@@H](O[C@H]3O[C@H](CO)[C@@H](O)[C@H](N)[C@H]3O)[C@H](NCC3(O)CCNC3)C[C@@H]2N)[C@H](N)C[C@@H]1O` (some centres unmarked) [Test compound (2), 1-N-[(3-hydroxypyrrolidin-3-yl)methyl]tobramycin], the MIC in [1] came to 1.56 µg/mL (≈ 2.75 µM); with Seratia marcescens MA-81, 12.5 µg/mL (≈ 22.1 µM); in the assay on Proteus inconstans In-43, 12.5 µg/mL (≈ 22.1 µM); in the assay with Escherichia coli EC-147 it was 3.13 µg/mL (≈ 5.52 µM); in the assay with Escherichia coli EC-148 it was 3.13 µg/mL (≈ 5.52 µM); in assay [2] it was 25 µg/mL (≈ 44.1 µM). The MIC in assay [3] is 0.78 µg/mL (≈ 1.38 µM); in assay [4], 0.78 µg/mL (≈ 1.38 µM); in [5], 0.78 µg/mL (≈ 1.38 µM); in assay [6], 0.39 µg/mL (≈ 0.688 µM); in assay [7], 1.56 µg/mL (≈ 2.75 µM); in [8], 0.78 µg/mL (≈ 1.38 µM). Besides, the MIC in [9] worked out at 3.13 µg/mL (≈ 5.52 µM).

`NC[C@H]1O[C@H](O[C@H]2[C@H](O)[C@@H](O[C@H]3O[C@H](CO)[C@@H](O)[C@H](N)[C@H]3O)[C@H](NCC3(O)CCNC3)C[C@@H]2N)[C@H](O)[C@@H](O)[C@@H]1O` (some centres unmarked) [Test compound (4), 1-N-[(3-hydroxypyrrolidin-3-yl)methyl]kanamycin A]: the MIC was 1.56 µg/mL (≈ 2.67 µM) in assay [1]; 12.5 µg/mL (≈ 21.4 µM) with Seratia marcescens MA-81; 3.13 µg/mL (≈ 5.36 µM) with Proteus inconstans In-43; 6.25 µg/mL (≈ 10.7 µM) with Escherichia coli EC-147; 6.25 µg/mL (≈ 10.7 µM) in the assay on Escherichia coli EC-148; 12.5 µg/mL (≈ 21.4 µM) in assay [2]. The MIC was determined as 1.56 µg/mL (≈ 2.67 µM) in assay [3]; 1.56 µg/mL (≈ 2.67 µM) in assay [4]; 3.13 µg/mL (≈ 5.36 µM) in assay [5]; 1.56 µg/mL (≈ 2.67 µM) in assay [6]; 3.13 µg/mL (≈ 5.36 µM) in [7]; 3.13 µg/mL (≈ 5.36 µM) in [8]. For the same molecule, the MIC in [9] worked out at 12.5 µg/mL (≈ 21.4 µM).

In the case of `NC[C@H]1O[C@H](O[C@H]2[C@H](O)[C@@H](O[C@H]3O[C@H](CO)[C@@H](O)[C@H](N)[C@H]3O)[C@H](NCC3(O)CNC3)C[C@@H]2N)[C@H](N)C[C@@H]1O` [Test compound (1), 1-N-[(3-hydroxyazetidin-3-yl)methyl]tobramycin], the MIC in assay [1] was 3.13 µg/mL (≈ 5.66 µM); with Seratia marcescens MA-81, 12.5 µg/mL (≈ 22.6 µM); in the assay with Proteus inconstans In-43, 6.25 µg/mL (≈ 11.3 µM); in the assay with Escherichia coli EC-147, 3.13 µg/mL (≈ 5.66 µM); in the assay on Escherichia coli EC-148, 3.13 µg/mL (≈ 5.66 µM); in [2], 50 µg/mL (≈ 90.5 µM). For the same molecule, the MIC was 0.78 µg/mL (≈ 1.41 µM) in [3]; 0.78 µg/mL (≈ 1.41 µM) in assay [4]; 0.78 µg/mL (≈ 1.41 µM) in assay [5]; 0.78 µg/mL (≈ 1.41 µM) in [6]; 1.56 µg/mL (≈ 2.82 µM) in assay [7]; 1.56 µg/mL (≈ 2.82 µM) in assay [8]. Besides, in [9], the MIC came out at 3.13 µg/mL (≈ 5.66 µM).

Take `NC[C@H]1O[C@H](O[C@H]2[C@H](O)[C@@H](O[C@H]3O[C@H](CO)[C@@H](O)[C@H](N)[C@H]3O)[C@H](N)C[C@@H]2N)[C@H](N)C[C@@H]1O` [Test compound (5), tobramycin, reference compound]: the MIC in assay [1] is 3.13 µg/mL (≈ 6.69 µM); with Seratia marcescens MA-81, greater than 100 µg/mL; in the assay on Proteus inconstans In-43, 6.25 µg/mL (≈ 13.4 µM); with Escherichia coli EC-147 it was 50 µg/mL (≈ 107 µM); in the assay on Escherichia coli EC-148 it was 100 µg/mL (≈ 214 µM); in [2], 100 µg/mL (≈ 214 µM). Besides, the MIC in assay [3] was determined as 25 µg/mL (≈ 53.5 µM); in assay [4] it was 25 µg/mL (≈ 53.5 µM); in assay [5], 50 µg/mL (≈ 107 µM); in assay [6], 25 µg/mL (≈ 53.5 µM); in assay [7] it was 100 µg/mL (≈ 214 µM); in [8], 50 µg/mL (≈ 107 µM). Further, the MIC in assay [9] was greater than 100 µg/mL.

Regarding `NC[C@H]1O[C@H](O[C@H]2[C@H](O)[C@@H](O[C@H]3O[C@H](CO)[C@@H](O)[C@H](N)[C@H]3O)[C@H](NCC3(O)CNC3)C[C@@H]2N)[C@H](O)[C@@H](O)[C@@H]1O` [Test compound (3), 1-N-[(3-hydroxyazetidin-3-yl)methyl]kanamycin A], the MIC came out at 3.13 µg/mL (≈ 5.49 µM) in assay [1]; 12.5 µg/mL (≈ 21.9 µM) in the assay with Seratia marcescens MA-81; 3.13 µg/mL (≈ 5.49 µM) in the assay on Proteus inconstans In-43; 6.25 µg/mL (≈ 11 µM) in the assay on Escherichia coli EC-147; 12.5 µg/mL (≈ 21.9 µM) in the assay with Escherichia coli EC-148; 25 µg/mL (≈ 43.9 µM) in assay [2]. Moreover, the MIC stood at 3.13 µg/mL (≈ 5.49 µM) in assay [3]; 1.56 µg/mL (≈ 2.74 µM) in assay [4]; 3.13 µg/mL (≈ 5.49 µM) in assay [5]; 1.56 µg/mL (≈ 2.74 µM) in assay [6]; 6.25 µg/mL (≈ 11 µM) in assay [7]; 3.13 µg/mL (≈ 5.49 µM) in [8]. The MIC in [9] is 12.5 µg/mL (≈ 21.9 µM).
